Results on 16 compounds are retold here after US6348445B1, “Biologically active peptides with reduced toxicity in animals and a method for preparing same” (priority 1992, dated 2002).

Holding throughout (assay type): cell-based
For experiment [1], the system named is P. aeruginosa strain ATCC 27853. To be noted: ATCC 27853. The text has this: (§1) Table I, which follows, indicates the Minimal Inhibitory Concentration (MIC) in […] of various peptides against S.aureus strain ATCC 25923(S), P. aeruginosa strain ATCC 27853(P), E. coli ATCC strain 25922(E), and C. 4albicans (CA). […] The peptides are unsubstituted at the N-terminal; substituted with an acetyl group at the N-terminal, as indicated by Ac-; substituted with an octanoyl group at the N-terminal, as indicated by Oct-; substituted with spinogosine, as indicated by Sph-; substituted with a succinyl group, as indicated by Suc-; substituted with a hexanoyl group, as indicated by Hex-; substituted with a heptanoyl group, as indicated by Hep-; substituted with a valeryl group, as indicated by Val-; substituted with a myristryl group, as indicated by Myr-; or substituted with an ibuprofyl group, as indicated by Ibu-;
(§2) The procedure for the anti-bacterial assay is based upon the guidelines of the National Committee for Clinical Laboratory Standards, Document M7-T2, Volume 8, No. 8, 1988, which document is entirely incorporated herein by reference.
(§3) Stock solutions of peptides, with and without the appropriate substitutions, were prepared at a concentration of 512 μg/ml in sterile deionized distilled water and stored at −70° C.
(§4) The stock peptide solution was diluted in serial dilutions (1:2) down the wells of a microtiter plate so that the final concentrations of peptides in the wells were 0.25, 0.50, 1, 2, 4, 8, 16, 32, 64, 128 and 256 μg/ml. 1-5×10^5 CFUs/ml of either S. aureus ATCC 25923, E. coli ATCC 25922, P. aeruginosa ATCC 27853, or C. albicans, were added to the wells in full strength Mueller Hinton broth (BBL 11443) from a mid-log culture. The inoculum was standardized spectrophotometrically at 600 nm and was verified by colony counts. The plates were incubated for 16-20 hours at 37° C., and the minimal inhibitory concentration (MIC) for each peptide was determined. Minimal inhibitory concentration is defined as the lowest concentration of peptide which produces a clear well in the microtiter plate. The minimal inhibitory concentration of each of the peptides with and/or without the appropriate substitutions is given in Table I below.
(§5) The in vitro anti-microbial activities of the methane sulfonate derivatives were determined according to the methods described in Examples 1 and 2. The activities against ATCC strains of S. aureus, E. coli, P. aeruginosa, and C. albicans, and the hemolysis of red blood cells were compared to the parent compound (Table IV). The activities for Compound 843 (Oct-SEQ ID NO:143) methane sulfonate against clinical strains of P. aeruginosa isolated from cystic fibrosis patients were compared to the parent compound (Table V). The activity for Compound 469 (Oct-SEQ ID NO:27) methane sulfonate against P. gingivalis was compared to the parent compound (Table VI).

In experiment [2] the test system is E. coli ATCC strain 25922. The experiment is described as follows: Minimal Inhibitory Concentration, microtiter broth dilution.
From the text: as §1, §2, §3, §4, §5

The next experiment relates to C. albicans.
From the text: as §1, §2, §3, §4

*1 amine or outer side, *2 acyl side, *3 side chain or, on linkers, in order; H or OH if unused. Where a SMILES comes first, the peptide text is derived from it. The star is where a group is joined. X2 = CCCCCCCCCCCCC/C=C/[C@@H](O)[C@H](CO)N*; Myristoyl = CCCCCCCCCCCCCC(=O)*; Suc = O=C(CCC(=O)[*:2])[*:1]; Octanoyl = CCCCCCCC(=O)*; Hexanoyl = CCCCCC(=O)*; Pentanoyl = CCCCC(=O)*

In the case of `CCCCCCCC(=O)N[C@@H](CC(C)C)C(=O)N[C@@H](CC(C)C)C(=O)N[C@@H](CCCCN)C(=O)N[C@@H](CCCCN)C(=O)N[C@@H](CC(C)C)C(=O)N[C@@H](CCCCN)C(=O)N[C@@H](CCCCN)C(=O)N[C@@H](CC(C)C)C(=O)N[C@@H](CC(C)C)C(=O)N[C@@H](CCCCN)C(=O)N[C@@H](CCCCN)C(=O)N[C@@H](CC(C)C)C(N)=O` [Oct-(SEQ ID NO: 113)-NH2] (Octanoyl-LLKKLKKLLKKL-NH2), the “Minimal Inhibitory Concentration P” value in experiment [1] was 8 µg/mL. Besides, the “Minimal Inhibitory Concentration E” value in experiment [2] (ATCC strain 25922) is 8 µg/mL. Besides, in the experiment with C. albicans, the “Minimal Inhibitory Concentration CA” value is 128 µg/mL.
For `CCCCCCCC(=O)N[C@@H](CC(C)C)C(=O)N[C@@H](CC(C)C)C(=O)N[C@@H](CCCCN)C(=O)N[C@@H](CCCCN)C(=O)N[C@@H](CC(C)C)C(=O)N[C@@H](CCCCN)C(=O)N[C@@H](CCCCN)C(=O)N[C@@H](CC(C)C)C(N)=O` [Oct-(SEQ ID NO: 107)-NH2] (Octanoyl-LLKKLKKL-NH2), the “Minimal Inhibitory Concentration P” value in experiment [1] worked out at 256 µg/mL. Besides, the “Minimal Inhibitory Concentration E” value in experiment [2] (ATCC strain 25922) is above 256 µg/mL. Besides, the “Minimal Inhibitory Concentration CA” value with C. albicans was 128 µg/mL.
The like results for `CCCCC(=O)N[C@@H](CC(C)C)C(=O)N[C@@H](CCCCN)C(=O)N[C@@H](CCCCN)C(=O)N[C@@H](CC(C)C)C(=O)N[C@@H](CC(C)C)C(=O)N[C@@H](CCCCN)C(=O)N[C@@H](CCCCN)C(=O)N[C@@H](CC(C)C)C(=O)N[C@@H](CCCCN)C(=O)N[C@@H](CCCCN)C(=O)N[C@@H](CC(C)C)C(N)=O` [Val-(SEQ ID NO: 110)-NH2] (Pentanoyl-LKKLLKKLKKL-NH2) were, in that order, 8 µg/mL, 32 µg/mL and 32 µg/mL.
The like results for `CCCCCCCCCCCCCC(=O)N[C@@H](CC(C)C)C(=O)N[C@@H](CCCCN)C(=O)N[C@@H](CCCCN)C(=O)N[C@@H](CC(C)C)C(=O)N[C@@H](CC(C)C)C(=O)N[C@@H](CCCCN)C(=O)N[C@@H](CCCCN)C(=O)N[C@@H](CC(C)C)C(=O)N[C@@H](CCCCN)C(=O)N[C@@H](CCCCN)C(=O)N[C@@H](CC(C)C)C(N)=O` [Myr-(SEQ ID NO: 110)-NH2] (Myristoyl-LKKLLKKLKKL-NH2) were, in that order, 16 µg/mL, 16 µg/mL and above 256 µg/mL.
Consider “Ac-LLKKLKKLLKKL-NH2 [Ac-(SEQ ID NO: 113)-NH2]”, for which the “Minimal Inhibitory Concentration P” value in experiment [1] was found to be 64 µg/mL. Moreover, the “Minimal Inhibitory Concentration E” value in experiment [2] (ATCC strain 25922) was found to be 64 µg/mL.
With `CCCCCCCC(=O)NCC(=O)N[C@H](C(=O)N[C@@H](CCCCN)C(=O)N[C@@H](CCCCN)C(=O)N[C@@H](Cc1ccccc1)C(=O)N[C@@H](CC(C)C)C(=O)N[C@@H](CCCCN)C(=O)N[C@@H](CCCCN)C(=O)N[C@@H](C)C(=O)NCC(=O)N[C@@H](CCCCN)C(=O)N[C@@H](Cc1ccccc1)C(=O)NCC(=O)N[C@@H](CCCCN)C(=O)N[C@@H](C)C(=O)N[C@@H](Cc1ccccc1)C(N)=O)[C@@H](C)CC` [Oct-(SEQ ID NO: 149)-NH2] (Octanoyl-GIKKFLKKAGKFGKAF-NH2), in experiment [1], the “Minimal Inhibitory Concentration P” value was 16 µg/mL. The “Minimal Inhibitory Concentration E” value in experiment [2] (ATCC strain 25922) came out at 32 µg/mL. The “Minimal Inhibitory Concentration CA” value with C. albicans is 126 µg/mL.
For `CCCCCCCC(=O)N[C@@H](CC(C)C)C(=O)N[C@@H](CCCCN)C(=O)N[C@@H](CCCCN)C(=O)N[C@@H](CC(C)C)C(=O)N[C@@H](CC(C)C)C(=O)N[C@@H](CCCCN)C(=O)N[C@@H](CCC(=O)O)C(=O)N[C@@H](CC(C)C)C(=O)N[C@@H](CCCCN)C(=O)N[C@@H](CCCCN)C(=O)N[C@@H](CC(C)C)C(N)=O` [Oct-(SEQ ID NO: 131)-NH2] (Octanoyl-LKKLLKELKKL-NH2), in that order: 8 µg/mL, 4 µg/mL and 64 µg/mL.
In the case of `CCCCCC(=O)N[C@H](C(=O)N[C@@H](C)C(=O)NCC(=O)N[C@@H](C)C(=O)N[C@H](C(=O)N[C@@H](C)C(=O)N[C@@H](CCCCN)C(=O)N[C@H](C(=O)N[C@@H](C)C(=O)NCC(=O)N[C@@H](CCCCN)C(=O)N[C@H](C(=O)N[C@@H](C)C(=O)N[C@@H](CCCCN)C(=O)N[C@H](C(=O)N[C@@H](C)C(=O)NCC(=O)N[C@@H](C)C(=O)N[C@H](C(=O)N[C@@H](C)C(N)=O)[C@@H](C)CC)[C@@H](C)CC)[C@@H](C)CC)[C@@H](C)CC)[C@@H](C)CC)[C@@H](C)CC` [Hex-(SEQ ID NO: 150)-NH2] (Hexanoyl-IAGAIAKIAGKIAKIAGAIA-NH2), the “Minimal Inhibitory Concentration P” value in experiment [1] came out at 128 µg/mL. In addition, the “Minimal Inhibitory Concentration E” value in experiment [2] (ATCC strain 25922) was found to be 32 µg/mL. Besides, in the experiment with C. albicans, the “Minimal Inhibitory Concentration CA” value was 128 µg/mL.
For `CC[C@H](C)[C@H](NC(=O)[C@H](CCCCN)NC(=O)CNC(=O)[C@H](C)NC(=O)[C@@H](NC(=O)[C@H](CCCCN)NC(=O)[C@H](C)NC(=O)[C@@H](NC(=O)[C@H](CCCCN)NC(=O)CNC(=O)[C@H](C)NC(=O)[C@@H](NC(=O)[C@H](CCCCN)NC(=O)[C@H](C)NC(=O)[C@@H](NC(=O)[C@H](CCCCN)NC(=O)CNC(=O)[C@H](C)NC(=O)[C@@H](NC(=O)[C@H](CCCCN)NC(=O)CCC(=O)O)[C@@H](C)CC)[C@@H](C)CC)[C@@H](C)CC)[C@@H](C)CC)[C@@H](C)CC)C(=O)N[C@@H](C)C(N)=O` [Suc-((SEQ ID NO: 27)-NH2] (Suc-KIAGKIAKIAGKIAKIAGKIA-NH2), the “Minimal Inhibitory Concentration P” value in experiment [1] is above 256 µg/mL. Also, the “Minimal Inhibitory Concentration E” value in experiment [2] (ATCC strain 25922) worked out at 32 µg/mL. In the experiment with C. albicans, the “Minimal Inhibitory Concentration CA” value worked out at 128 µg/mL.
Take `CCCCCCCCCCCCCC(=O)N[C@@H](CC(C)C)C(=O)N[C@@H](CCCCN)C(=O)N[C@@H](CCCCN)C(=O)N[C@@H](CC(C)C)C(=O)N[C@@H](CC(C)C)C(=O)N[C@@H](CCCCN)C(=O)N[C@@H](CCC(=O)O)C(=O)N[C@@H](CC(C)C)C(=O)N[C@@H](CC(C)C)C(=O)N[C@@H](CCCCN)C(=O)N[C@@H](CC(C)C)C(N)=O` [Myr-(SEQ ID NO: 151)-NH2] (Myristoyl-LKKLLKELLKL-NH2): in experiment [1], the “Minimal Inhibitory Concentration P” value stood at 128 µg/mL. The “Minimal Inhibitory Concentration E” value in experiment [2] (ATCC strain 25922) was 64 µg/mL. In addition, the “Minimal Inhibitory Concentration CA” value in the experiment with C. albicans is above 256 µg/mL.
Take “Ac-LKKLLKKLKKL-NH2 [Ac-(SEQ ID NO: 110)-NH2]”: the “Minimal Inhibitory Concentration P” value in experiment [1] is reported as 8,16 μg/ml. In experiment [2] (ATCC strain 25922), the “Minimal Inhibitory Concentration E” value is recorded as 32,64 μg/ml.
`CCCCCCCCCCCCC/C=C/[C@@H](O)[C@H](CO)NC(=O)CCC(=O)N[C@@H](CCCCN)C(=O)N[C@H](C(=O)N[C@@H](C)C(=O)NCC(=O)N[C@@H](CCCCN)C(=O)N[C@H](C(=O)N[C@@H](C)C(=O)N[C@@H](CCCCN)C(=O)N[C@H](C(=O)N[C@@H](C)C(=O)NCC(=O)N[C@@H](CCCCN)C(=O)N[C@H](C(=O)N[C@@H](C)C(=O)N[C@@H](CCCCN)C(=O)N[C@H](C(=O)N[C@@H](C)C(=O)NCC(=O)N[C@@H](CCCCN)C(=O)N[C@H](C(=O)N[C@@H](C)C(N)=O)[C@@H](C)CC)[C@@H](C)CC)[C@@H](C)CC)[C@@H](C)CC)[C@@H](C)CC)[C@@H](C)CC` [Sph-Suc-(SEQ ID NO: 27)-NH2] ({X2-Suc}-KIAGKIAKIAGKIAKIAGKIA-NH2): the “Minimal Inhibitory Concentration P” value in experiment [1] is above 256 µg/mL. Also, in experiment [2] (ATCC strain 25922), the “Minimal Inhibitory Concentration E” value came out at 32 µg/mL.
On to “Ac-KIAGKIAKIAGKIAKIAGKIA-NH2 [Ac-(SEQ ID NO: 27)-NH2]”, for which the “Minimal Inhibitory Concentration P” value in experiment [1] is 128 µg/mL. In addition, in experiment [2] (ATCC strain 25922), the “Minimal Inhibitory Concentration E” value worked out at 8 µg/mL.
On to “H-LKKLLKKLKKL-NH2 [(SEQ ID NO: 110)-NH2]”, for which, in experiment [1], the “Minimal Inhibitory Concentration P” value was 32,64 μg/ml. Further, the “Minimal Inhibitory Concentration E” value in experiment [2] (E. coli ATCC strain 25922, Table I) is on record as 64,128 μg/ml.
As to “H-LLKKLKKLLKKL-NH2 [(SEQ ID NO: 113)-NH2]”, the “Minimal Inhibitory Concentration P” value in experiment [1] is 8,16 μg/ml. In addition, in experiment [2] (ATCC strain 25922), the “Minimal Inhibitory Concentration E” value was found to be 32 µg/mL.
With “H-KIAGKIAKIAGKIAKIAGKIA-OH [(SEQ ID NO: 27)-OH, (Lys Ile Ala Gly Lys Ile Ala)3]”, the “Minimal Inhibitory Concentration P” value in experiment [1] came out at 128 µg/mL. In addition, in experiment [2] (ATCC strain 25922), the “Minimal Inhibitory Concentration E” value was 8 µg/mL.
